According to PMC5515971, “Utility of spherical human liver microtissues for prediction of clinical drug-induced liver injury” (Archives of Toxicology, 2017):
Read-outs that look alike come from different tables or passages of the source.

How the values were obtained:
[1] = cited from earlier work; for DILI category: clinical, from literature and product labels, ref Garside et al. 2014
[2] = tested on: 3D human liver microtissues (hLiMT); assay: Cytotoxicity (cellular ATP, CellTiter-Glo 2.0) in 3D human liver microtissues, 14 day repeat-dose treatment
[3] = tested on: primary human hepatocytes (PHH); assay: Cytotoxicity (cellular ATP, CellTiter-Glo) in 2D plated primary human hepatocytes, 48 h treatment; assay type: cell-based; settings: for IC50: read-out: Geomean IC50;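 on all read-outs here: 384-well plates, luminescence read-out, normalized to vehicle wells with 1% DMSO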
[4] = ref Chen et al 2016 / Chen et al 2011; cited from earlier work
[5] = cited from earlier work
[6] = Table 1, ref Garside et al. (2014)
[7] = clinical DILI severity category, 1-5
[8] = Homo sapiens, Hepatocyte, 336 h, read-out: Geomean IC50 [µM]
[9] = Hepatocyte, 2D primary human hepatocytes (lot IZT), 48 h treatment, total cellular ATP content
[10] = human Cmax total, used for IC50/Cmax
[11] = human total plasma Cmax, ref literature values
[12] = read-out: Geomean IC50, decrease in total cellular ATP content, hLiMT treated for 14 days, hepatocyte lot IZT (except Dexamethasone) co-cultured with NPCs, n=1 or geometric mean
[13] = 2D primary human hepatocytes (lot IZT), 48 h treatment, total cellular ATP content

Structure (SMILES)	DILI severity category [1, 6]	DILI severity category [1, 7]	DILI category [1]	IC50 [2, 8] [µM]	IC50 [3, 9] [µM]	Cmax [5, 10] [µM]	Cmax [5, 11] [µM]	other results
Cc1cn([C@H]2C=C[C@@H](CO)O2)c(=O)[nH]c1=O [Stavudine]	1: Severe clinical DILI (N = 23)	1. Severe Clinical DILI	1. Severe Clinical DILI	> 500	> 500	3.46	3.46	FDA DILI Classification DILI severity score [4]: 8; LTKB DILI classification [4]: most DILI concern
CC(=O)Oc1ccccc1C(=O)O [Acetylsalicylic acid]	3: Low clinical DILI concern (N = 23)	3. Low Clinical DILI Concern	3. Low Clinical DILI Concern	> 1000	> 1000	1110	1110	FDA DILI Classification DILI severity score [4]: 5
CC(C(=O)O)c1ccc2oc(-c3ccc(Cl)cc3)nc2c1 (stereo not shown) [Benoxaprofen]	1: Severe clinical DILI (N = 23)	1. Severe Clinical DILI	1. Severe Clinical DILI	> 100	> 100	149	149	FDA DILI Classification DILI severity score [4]: 8; LTKB DILI classification [4]: most DILI concern
O=C(O)COc1ccc(C(=O)c2cccs2)c(Cl)c1Cl [Tienilic Acid]	1: Severe clinical DILI (N = 23)	1. Severe Clinical DILI	1. Severe Clinical DILI	567	> 100	82.7	82.7	
NC(=O)OCC(COC(N)=O)c1ccccc1 [Felbamate]	1: Severe clinical DILI (N = 23)	1. Severe Clinical DILI	1. Severe Clinical DILI	> 100	> 100	399	399	FDA DILI Classification DILI severity score [4]: 7; LTKB DILI classification [4]: most DILI concern
Clc1ccccc1CN1CCc2sccc2C1 [Ticlopidine]						8.1	8.07	
O=C1CN(/N=C/c2ccc(-c3ccc([N+](=O)[O-])cc3)o2)C(O)=N1 [Dantrolene]	1: Severe clinical DILI (N = 23)	1. Severe Clinical DILI	1. Severe Clinical DILI	> 100	> 100	3.95	3.95	FDA DILI Classification DILI severity score [4]: 8; LTKB DILI classification [4]: most DILI concern
Cn1cnc([N+](=O)[O-])c1Sc1ncnc2nc[nH]c12 [Azathioprine]	2: High clinical DILI concern (N = 23)	2. High Clinical DILI Concern	2. High Clinical DILI Concern	22.2	> 100	7.2	7.21	FDA DILI Classification DILI severity score [4]: 5; LTKB DILI classification [4]: most DILI concern
OC(CCN1CCCC1)(c1ccccc1)C1CCCCC1 (stereo not shown) [Procyclidine]				117	97.9	2.19	2.19	classification at 50× MOS threshold ([3]; PHH 48 h): false positive
CCCC(CCC)C(=O)O [Valproic acid]				> 100	> 100	693	693	
CS(=O)(=O)Nc1ccc([N+](=O)[O-])cc1Oc1ccccc1 [Nimesulide]				60.5	436	21.1	21.1	
C[C@H]1O[C@@H](O[C@H]2[C@@H](O)C[C@H](O[C@H]3[C@@H](O)C[C@H](O[C@H]4CC[C@@]5(C)[C@H](CC[C@@H]6[C@@H]5C[C@@H](O)[C@]5(C)[C@@H](C7=CC(=O)OC7)CC[C@]65O)C4)O[C@@H]3C)O[C@@H]2C)C[C@H](O)[C@@H]1O [Digoxin]				0.33				classification at 100 μM IC50 threshold ([2]; hLiMT 14 days): false positives; IC50 ([3]; Homo sapiens, Hepatocyte, 48 h): < 0.15 µM; classification at 100 μM IC50 threshold ([3]; PHH 48 h): false positives; classification at 50× MOS threshold ([3]; PHH 48 h): false positive
C[C@H]1COc2c(N3CCN(C)CC3)c(F)cc3c(=O)c(C(=O)O)cn1c23 [Levofloxacin]				> 320	> 500	15.8	15.8	
Cc1ccc(-c2cc(C(F)(F)F)nn2-c2ccc(S(N)(=O)=O)cc2)cc1 [Celocoxib]	2: High clinical DILI concern (N = 23)	2. High Clinical DILI Concern	2. High Clinical DILI Concern			2.54	2.54	IC50 [2, 12]: 26.2 µM; IC50 [3, 13]: 155 µM
CNCCC(Oc1ccc(C(F)(F)F)cc1)c1ccccc1 (stereo not shown) [Fluoxetine]						0.05	0.05	
CN1CCN(C2=Nc3cc(Cl)ccc3Nc3ccccc32)CC1 [Clozapine]						2.4	2.45	
CCN(CC)Cc1cc(Nc2ccnc3cc(Cl)ccc23)ccc1O [Amodiaquine]	2: High clinical DILI concern (N = 23)	2. High Clinical DILI Concern	2. High Clinical DILI Concern	< 7.8	18.5	1.91	1.91	
CCOC(=O)C1=C(C)NC(C)=C(C(=O)OC)C1c1cccc(Cl)c1Cl (stereo not shown) [Felodipine]				> 10	> 10	0.03	0.03	
CCN(CC)CC#CCOC(=O)C(O)(c1ccccc1)C1CCCCC1 (stereo not shown) [Oxybutynin]						0.022	0.0224	

Structure (SMILES)	DILI severity category [1, 6]	DILI severity category [1, 7]	DILI category [1]	IC50 [2, 8] [µM]	IC50 [3, 9] [µM]	Cmax [5, 10] [µM]	Cmax [5, 11] [µM]	other results
CO[C@@]12[C@H](COC(N)=O)C3=C(C(=O)C(C)=C(N)C3=O)N1C[C@@H]1N[C@@H]12 [Mitomycin C]				< 0.8		7.1	7.1	IC50 ([3]; Homo sapiens, Hepatocyte, 48 h): 14.8 µM
Nc1cc(N2CCCCC2)nc(N)[n+]1[O-] [Minoxidil]				> 100	> 100	1.2	1.19	
CC/C(=C(\c1ccccc1)c1ccc(OCCN(C)C)cc1)c1ccccc1 [Tamoxifen]						0.4	0.4	
COC(=O)C1=C(C)NC(C)=C(C(=O)OCCN(C)Cc2ccccc2)C1c1cccc([N+](=O)[O-])c1 (stereo not shown) [Nicardipine]						0.08	0.08	
CNCCCN1c2ccccc2CCc2ccccc21 [Desipramine]	3: Low clinical DILI concern (N = 23)	3. Low Clinical DILI Concern	3. Low Clinical DILI Concern			1.88	1.88	FDA DILI Classification DILI severity score [4]: 3; LTKB DILI classification [4]: Ambiguous DILI concern
CN(C)C(=O)Oc1ccc[n+](C)c1 [Pyridostigmine]				> 100	> 200	1.1	1.1	
CN(CCOc1ccc(CC2SC(=O)NC2=O)cc1)c1ccccn1 (stereo not shown) [Rosiglitazone]	2: High clinical DILI concern (N = 23)	2. High Clinical DILI Concern	2. High Clinical DILI Concern		> 100	1	1.04	FDA DILI Classification DILI severity score [4]: 3; LTKB DILI classification [4]: less DILI concern
N[C@@H]1CON=C1O [Cycloserine]				7460	> 10	333	333	
CN(C)CCCN1c2ccccc2CCc2ccccc21 [Imipramine]						0.54	0.53	
C#C[C@]1(O)CC[C@H]2[C@@H]3CCC4=Cc5oncc5C[C@]4(C)[C@H]3CC[C@@]21C [Danazol]				> 100	108		207	
N[C@@H]1[C@H]2CN(c3nc4c(cc3F)c(=O)c(C(=O)O)cn4-c3ccc(F)cc3F)C[C@@H]12 [Trovafloxacin]				> 125	> 125			
CN1C(C(=O)Nc2nccs2)=C(O)c2ccccc2S1(=O)=O [Sudoxicam]				> 100	> 100	77	77.1	
CCN1C(=O)NC(c2ccccc2)C1=O (stereo not shown) [Ethotion]				> 150	> 1250	367	367	
O=P1(N(CCCl)CCCl)NCCCO1 (stereo not shown) [Cyclophosphamide]				> 2000				IC50 ([3]; Homo sapiens, Hepatocyte, 48 h): > 2000 µM; Cmax ([5]; human, in vivo): 143 µM
Cc1ccc(N(CC2=NCCN2)c2cccc(O)c2)cc1 [Phentolamine]				> 100	> 100	0.09	0.09	
Cc1onc(-c2c(F)cccc2Cl)c1C(=O)N[C@@H]1C(=O)N2[C@@H]1SC(C)(C)[C@@H]2C(=O)O [Flucloxacillin]	2: High clinical DILI concern (N = 23)	2. High Clinical DILI Concern	2. High Clinical DILI Concern	12200	4670	66.1	66.1	
CN1[C@@H]2CC[C@H]1C[C@@H](OC(=O)[C@H](CO)c1ccccc1)C2 [Hyoscyamine (Daturine)]								IC50 [2, 12]: > 10 µM; IC50 [3, 13]: > 10 µM
N[C@@H](Cc1cc(I)c(Oc2ccc(O)c(I)c2)c(I)c1)C(=O)O [Liothyronine]				> 10		0.00246	0.00246	IC50 ([3]; Homo sapiens, Hepatocyte, 48 h): > 10 µM
